Laboratory results reported in patent US20110014644A1, “METHODS FOR PREDICTING A CANCER PATIENT'S RESPONSE TO ANTIFOLATE CHEMOTHERAPY” (Precision Therapeutics, Inc., priority 2009, published 2011).

Key:
A549 cells = assay: ChemoFx live cell chemoresponse assay on A549 (wash-before-treatment, folic acid supplementation); type: cell-based, human
Experimental: The ChemoFx™ live cell chemoresponse assay was performed on 65 patient specimens and the cell line A549. The cells were treated with a 10-dose range of pemetrexed for 72 hours before DAPI-nuclear staining and counting. AUC (Area Under Curve) values were calculated and additional statistical analysis was performed on the resulting dose-response curves. Folic Acid supplementation experiments were conducted. Pure folic acid was purchased from Sigma Aldrich, filtered, and prepared in a 100× concentration using RPMI media. The concentrate was added to RPMI media so that the final concentration of folic acid ranged between 1.5 mg/L and 500 mg/L. The cell line A549 was plated and treated according to the ChemoFx™ assay in the RPMI media containing increasing concentrations of folic acid. A control was also plated and treated at the same time. In order to determine whether or not removal of excess folic acid from growth media affected the outcome of the chemoresponse assay, a Wash Before Treatment (WBT) step was included. Briefly, A549 cells were plated in 5% BEGM growth media and were cultured to the desired confluence. The growth media was then aspirated and the cells washed with 70 μL of PBS. After removal of the PBS, 70 μL of 5% RPMI+EGF (EGF concentration of 10 ng/mL) treatment media was added to the each treatment well. Following the addition of the treatment media, 30 μL of the treatment media was removed leaving a total volume of 40 μL of treatment media per well. Pemetrexed was then prepared using serial dilutions in the treatment media and was applied to the treatment wells. All aspirations and additions of media and wash solutions was performed by an automated liquid handler to avoid harsh pipetting that might dissociate/disrupt cells.

[1] = test system: primary cultures of NSCLC specimens; assay: ChemoFx live cell chemoresponse assay on primary cultures of patient lung cancer specimens; type: cell-based, human; details: 65 primary cultures, single agent, 72 hours
Experimental: The ChemoFx™ live cell chemoresponse assay was performed on 65 patient specimens and the cell line A549. The cells were treated with a 10-dose range of pemetrexed for 72 hours before DAPI-nuclear staining and counting. AUC (Area Under Curve) values were calculated and additional statistical analysis was performed on the resulting dose-response curves.
The area under the dose-response curve (AUC) represents the survival fraction of cells in the presence of drug at each of the 10 increasing dose concentrations. There can be certain circumstances when dose-response curves of differing shapes share similar AUCs. Therefore, as a better reflection of sensitivity to drug treatment, an adjusted area under the curve (aAUC) was calculated according to the following formulas. First, local slope (Sd) at each dose point was calculated based on Sd=(CId-1−CId)/unit of dose. Second, slope weight (Wd) at each dose point was calculated based on Wd=1−Sd. Finally, aAUC was computed based on aAUC=Σ Wd CId, where d=1 . . . 10. Mi Z, et al. (2008) Anticancer Res 28: 1733-1740.
Adjusted areas under the curve (aAUC) were calculated for each dose-response curve. The assay results were classified as responsive (R; assay score≦5.34648.0), intermediate responsive (IR; assay score 5.3465-6.5372) or non-responsive (NR; assay score≧6.5373).

[2] = test system: non-small cell lung carcinoma (NSCLC); details: second-line treatment in the clinical setting, NSCLC patients (Hanna 2004); cited from earlier work

In the case of `Nc1nc2[nH]cc(CCc3ccc(C(=O)N[C@@H](CCC(=O)O)C(=O)O)cc3)c2c(=O)[nH]1` [pemetrexed, Pemetrexed], the “effect of folic acid on observed activity” value (A549 cells; A549, RPMI media with folic acid 1.5 mg/L to 500 mg/L, FIG. 3) is reported as “could be reversed with folic acid treatment”, the “effect of wash-before-treatment (WBT) protocol on in vitro response” value (A549 cells; A549, with WBT, 5% BEGM to 5% RPMI+EGF, FIG. 1) is reported as “significantly improved the in vitro response” and the “response curve without WBT” value (A549 cells; A549, without WBT (5% BEGM control)) is reported as “a typical ChemoFx™ response curve was not obtained”. For the same compound, the “sensitivity of A549 to treatment” value (A549 cells; A549 cultured in 5% BEGM, treated in 5% RPMI+EGF, FIG. 1) was “good positive control for sensitivity”, the “share of primary cultures with intermediate response (IR)” value ([1]; 2.24 nM to 586 μM, aAUC assay score 5.3465-6.5372) was 9.2% and the “share of primary cultures non-responsive (NR)” value ([1]; 2.24 nM to 586 μM, aAUC assay score ≧6.5373) was 84.6%. For the same compound, the “share of primary cultures that responded (responsive, R)” value ([1]; ten serial dilutions 2.24 nM to 586 μM, aAUC assay score ≦5.34648.0) was 6.2% and the “objective response rate (overall population response)” value [2] was 9.1%.
